Data set [1] relates to ABCA12. Briefly: Skin barrier biomarker gene expression, real-time RT-PCR, keratinocyte monolayer. Format: cell-based, human. To be noted: gene expression level, keratinocytes treated 24 hours; Control C KGM 100%; concentration differs per example. Here is the method: (§1) An in vitro model was employed, using monolayer human dermal keratinocytes culture (KGM). Two controls were tested: the medium and inflammatory cytokines interleukin (IL-1b).
(§2) Skin Barrier: • Biomarkers: ABCA12, Involucrin, PPARδ • Using different concentration of ingredients to treat the keratinocyte for 24 hours • Collect the cells and prepare total RNA from the treated cells • Using Real-time RT-PCT to detect different barrier function related biomarker's gene expression level • Comparative Benchmark: Vitamin D3 (cholecalciferol) in three different concentrations
ABCA12 is also known as ATP-binding cassette transporter 12. It is a protein that in humans is encoded by the ABCA12 gene. The ABCA12 gene is active in some types of skin cells. The ABCA12 protein appears to be essential for normal development of the skin, which provides a barrier between the body and its surrounding environment. It plays an important role in transporting lipids (free fat acids) in cells that make up the outermost layer of skin (the epidermis). Generally, the higher expression, the better skin barrier function is.
(In general: Real-time PCR tracks product formation cycle by cycle.)

Data set [2] deals with Involucrin. The data set is described as above. Format: cell-based, human. To be noted: gene expression level, keratinocytes treated 24 hours; Control C KGM 100%; concentration differs per example. Here is the method: as §1, §2
Involucrin is a protein component of human skin. It's a biomarker for keratinocyte differentiation. In binding the protein loricrin, involucrin contributes to the formation of a cell envelope that protects corneocytes in the skin stratum corneum. The higher expression, the better skin barrier function is.

For data set [3], the system named is PPARδ. The data set is described as above. It counts as cell-based, human. Conditions: gene expression level, keratinocytes treated 24 hours; Control C KGM 100%; concentration differs per example. Here is the method:
as §1, §2
PPARδ is Peroxisome proliferator-activated receptor, also known as NR1C2. It is a nuclear receptor that in humans is encoded by the PPARD gene. […] Generally, the higher expression, the better skin barrier function is.

The test system of data set [4] is human dermal keratinocytes. As to the kind of experiment: MTT assay, cell viability of PMA-treated keratinocytes. To be noted: co-treated with PMA, amount (wt. %) differs per example, Control A medium 100%. It counts as cell-based. The source says: The MTT assay is a colorimetric assay for assessing cell viability, cell proliferation, and/or cytotoxicity. NAD(P)H-dependent cellular oxidoreductase enzymes may, under defined conditions, reflect the number of viable cells present. These enzymes are capable of reducing the tetrazolium dye MTT 3-(4,5-dimethylthiazol-2-yl)-2,5-diphenyltetrazolium bromide to insoluble formazan, which has a purple color. MTT assay can also be used to measure cytotoxicity (loss of viable cells) or cytostatic activity (shift from proliferative to resting status) of potential medicinal agents and toxic materials.
Controls A and B described above for the IL-8 Assay were also employed in this test. The mitigating effect of the test samples on the effect of Control B on the keratinocytes was measured. More specifically, while Control B has a negative effect on cell viability, cell proliferation, and/or cytotoxicity, this mitigation of this negative effect was determined by measuring the reduction of MTT.
The following steps were followed: Once the liquid was removed from the wells for the IL-8 Assay described above, 100 μl/well of 0.5 mg/ml of MTT in phenol red-free DMEM (cell culture medium) was added into each of the 96-well plates. After incubating 1 hour at 37° C., all liquid was removed (MTT solution) from the wells of the culture plate. Then 100 μl of DMSO was added to each well to completely dissolve the purple product. Absorption was measured using a plate reader at 550 nm wavelength.

In data set [5] the test system is IL-8. Briefly: IL-8 ELISA, PMA-induced IL-8 in human dermal keratinocytes. Format: cell-based. To be noted: niacinamide in cell culture medium, co-treated with PMA; amount (wt. %) differs per example; Control A medium 100%, Control B PMA 0.0%. The text has this:
Interleukin 8 (IL-8) is a chemokine and proinflammatory cytokine produced by macrophages and other cell types such as epithelial cells. It is secreted from keratinocytes in skin in response to inflammatory stimuli. IL-8 is secreted and is an important mediator of the immune reaction in the innate immune system response. IL-8 overexpressed is a biomarker of skin irritation. […] No irritation is expected, and therefore Control A provides a baseline. […] Decreased 11-8 expression reflects the ingredient's anti-irritation activity. In order to carry out the test method, an assay kit was employed that was obtained from R&D Systems: Human CXCL8/IL-8 Duoset ELISA Development Kit. The following steps were followed: 1. Coat EIA high binding 96-well plate with IL-8 capture antibody overnight at room temperature. 2. Prepare all reagents, standard dilutions, and samples. 3. Wash the coated plate with 350 μL/well of washing buffer 4 times, then adding 300 μL/well of blocking solution incubating 1 hour at room temperature. 4. Repeat washing step with 350 μL/well of wash buffer (4 times). 5. Add 100 μL, of Standard, control, or sample to each well. Cover with a plate sealer, and incubate at room temperature for 2 hours. 6. Aspirate each well and wash, repeating the process 3 times for a total of 4 washes. 7. Add 100 μL, of detection IL-8 antibody to each well. Cover with a new plate sealer, and incubate at room temperature for 2 hours. 8. Aspirate and wash 4 times. 9. Add 100 μL, Biotin-Strepavidin conjugate to each well, incubating 20 minutes at room temperature. 10. Aspirate and wash 4 times. 11. Add 100 μL, substrate Solution to each well. Incubate at room temperature for 20 minutes, making sure to protect the wells from the light. 12. Add 50 μL, of Stop Solution to each well. Data collected—using a colorimeter, absorbance was measured at 450 nanometers (nm) within 30 minutes. Wavelength correction was set to 570 nm.
(In an ELISA, binding on a coated surface is turned into a signal by an enzyme label.)

Data set [6] has as its system TNF-α. As to the kind of experiment: TNF-α ELISA, as IL-8 method, PMA-treated human dermal keratinocytes. Conditions: niacinamide in cell culture medium, co-treated with PMA; amount (wt. %) differs per example; Control A medium 100%, Control B PMA 0.0%. It counts as cell-based. The source says:
For Control A, human dermal keratinocytes are left untreated. No irritation is expected, and therefore Control A provides a baseline. For Control B, IL-8 is induced in human dermal keratinocytes by applying phorbol 12-myristate 13-acetate (PMA). For all other samples, the human dermal keratinocytes are co-treated with PMA and a composition containing the ingredient of interest. Decreased 11-8 expression reflects the ingredient's anti-irritation activity.
The following steps were followed: 1. Coat EIA high binding 96-well plate with IL-8 capture antibody overnight at room temperature. 2. Prepare all reagents, standard dilutions, and samples. 3. Wash the coated plate with 350 μL/well of washing buffer 4 times, then adding 300 μL/well of blocking solution incubating 1 hour at room temperature. 4. Repeat washing step with 350 μL/well of wash buffer (4 times). 5. Add 100 μL, of Standard, control, or sample to each well. Cover with a plate sealer, and incubate at room temperature for 2 hours. 6. Aspirate each well and wash, repeating the process 3 times for a total of 4 washes. 7. Add 100 μL, of detection IL-8 antibody to each well. Cover with a new plate sealer, and incubate at room temperature for 2 hours. 8. Aspirate and wash 4 times. 9. Add 100 μL, Biotin-Strepavidin conjugate to each well, incubating 20 minutes at room temperature. 10. Aspirate and wash 4 times. 11. Add 100 μL, substrate Solution to each well. Incubate at room temperature for 20 minutes, making sure to protect the wells from the light. 12. Add 50 μL, of Stop Solution to each well. Data collected—using a colorimeter, absorbance was measured at 450 nanometers (nm) within 30 minutes. Wavelength correction was set to 570 nm.
Samples were tested similarly to the method described above, except that TNF-α was used instead of IL-8.

As to `C=C1CC[C@H](O)C/C1=C/C=C1\CCC[C@]2(C)[C@@H]([C@H](C)CCCC(C)C)CC[C@@H]12` [Comparative 1, Vitamin D3 (cholecalciferol), reference compound], the “ABCA12 (%)” value in data set [1] worked out at 58%. Further, the Involucrin in data set [2] came out at 384%. The same compound came in with a PPARδ in data set [3] of 752%.

In the case of `C=C1CC[C@H](O)C/C1=C/C=C1\CCC[C@]2(C)[C@@H]([C@H](C)CCCC(C)C)CC[C@@H]12` [Comparative 2, Vitamin D3 (cholecalciferol), reference compound], the “ABCA12 (%)” value in data set [1] came out at 45%. In data set [2], the Involucrin worked out at 208%. In data set [3], this compound showed a PPARδ of 334%.

`C=C1CC[C@H](O)C/C1=C/C=C1\CCC[C@]2(C)[C@@H]([C@H](C)CCCC(C)C)CC[C@@H]12` [Comparative 3, Vitamin D3 (cholecalciferol), reference compound]: the “ABCA12 (%)” value in data set [1] was 42%. In data set [2], this compound displayed an Involucrin of 406%. This compound came in with a PPARδ in data set [3] of 238%.

As for `CCCCCCCCCCCCCC(=O)O[C@@H]1[C@@H](C)[C@@]2(O)[C@@H](C=C(CO)C[C@]3(O)C(=O)C(C)=C[C@@H]23)[C@@H]2C(C)(C)[C@]12OC(C)=O` [Control B, phorbol 12-myristate 13-acetate, reference compound], the “Cell Viability (%)” value in data set [4] (avenanthramide series) and in data set [4] (niacinamide series) was 95% throughout.

In the case of `NC(=O)c1cccnc1` [Example 16, Niacinamide], the “IL-8 Inhibition (%)” value in data set [5] came to 0.0%.

Turning to `NC(=O)c1cccnc1` [Example 17, Niacinamide], the “IL-8 Inhibition (%)” value in data set [5] amounted to 16.53%.

For `NC(=O)c1cccnc1` [Example 18, Niacinamide], in data set [5], the “IL-8 Inhibition (%)” value amounted to 16.64%.

In the case of `NC(=O)c1cccnc1` [Example 19, Niacinamide], the “IL-8 Inhibition (%)” value in data set [5] is 20.86%.

With `NC(=O)c1cccnc1` [Example 20, Niacinamide], the “IL-8 Inhibition (%)” value in data set [5] turned out to be 28.85%.

As to `NC(=O)c1cccnc1` [Example 21, Niacinamide], the “IL-8 Inhibition (%)” value in data set [5] is on record as 33.20%.

For `NC(=O)c1cccnc1` [Example 22, Niacinamide], the “IL-8 Inhibition (%)” value in data set [5] is reported as 32.04%.

As for `NC(=O)c1cccnc1` [Example 23, Niacinamide], in data set [6], the “TNF-α Inhibition (%)” value came out at 28.2%.

On to `NC(=O)c1cccnc1` [Example 24, Niacinamide], for which the “TNF-α Inhibition (%)” value in data set [6] is recorded as 29.6%.

For `NC(=O)c1cccnc1` [Example 25, Niacinamide], in data set [6], the “TNF-α Inhibition (%)” value is 28.6%.

As for `NC(=O)c1cccnc1` [Example 26, Niacinamide], the “TNF-α Inhibition (%)” value in data set [6] is listed as 45.6%.

Consider `NC(=O)c1cccnc1` [Example 27, Niacinamide], for which the “TNF-α Inhibition (%)” value in data set [6] is listed as 45.1%.

Consider `NC(=O)c1cccnc1` [Example 28, Niacinamide], for which, in data set [6], the “TNF-α Inhibition (%)” value turned out to be 52.7%.

On to `NC(=O)c1cccnc1` [Example 29, Niacinamide], for which, in data set [4] (niacinamide series), the “Cell Viability (%)” value stood at 97%.

As to `NC(=O)c1cccnc1` [Example 30, Niacinamide], in data set [4] (niacinamide series), the “Cell Viability (%)” value was found to be 95%.

Consider `NC(=O)c1cccnc1` [Example 31, Niacinamide], for which the “Cell Viability (%)” value in data set [4] (niacinamide series) was 99%.

For `NC(=O)c1cccnc1` [Example 32, Niacinamide], the “Cell Viability (%)” value in data set [4] (niacinamide series) was 87%.

As for `NC(=O)c1cccnc1` [Example 33, Niacinamide], the “ABCA12 (%)” value in data set [1] is 41%. In addition, the Involucrin in data set [2] was 156%. Further, in data set [3], the PPARδ is reported as 82%.

On to `NC(=O)c1cccnc1` [Example 34, Niacinamide], for which the “ABCA12 (%)” value in data set [1] is 120%. Also, in data set [2], the Involucrin was 192%. The compound also came in with a PPARδ in data set [3] of 88%.

As to `NC(=O)c1cccnc1` [Example 35, Niacinamide], in data set [1], the “ABCA12 (%)” value is recorded as 192%. In data set [2], the Involucrin was 441%. Moreover, the PPARδ in data set [3] was 136%.

Consider `NC(=O)c1cccnc1` [Example 36, Niacinamide], for which the “ABCA12 (%)” value in data set [1] came out at 806%. The compound also displayed an Involucrin in data set [2] of 817%. Further, the PPARδ in data set [3] is 164%.

For the compound `NC(=O)c1cccnc1` [Example 37, Niacinamide], the “ABCA12 (%)” value in data set [1] is listed as 447%. In data set [2], this compound gave an Involucrin of 1589%. For the same compound, the PPARδ in data set [3] worked out at 378%.

As to `NC(=O)c1cccnc1` [Example 38, Niacinamide], the “ABCA12 (%)” value in data set [1] amounted to 499%. The same compound came in with an Involucrin in data set [2] of 1656%. Further, in data set [3], the PPARδ is 863%.
